How the values were obtained:
Olfr923 = assay: Act-Seq activation score in OSNs expressing Olfr923; format: in vivo, mouse; conditions: acetophenone vs 2-HA
Protocol: Act-Seq (Wu et al., 2017) was performed following odor exposure to quantify odor-evoked responses in each OSN subtype (defined by their expressed OR) across the entire OR repertoire. Mice were habituated to a reversed light cycle for at least for 1 week before odor exposure, transferred to a new disposable cage with regular bedding/food and kept overnight in a satellite animal facility. On the experimental day, each mouse was first transferred to a new empty disposable cage during the dark cycle and habituated for 20 minutes. Empty cages were used to avoid any activation by odorants present within the environments in which the mice were housed. Odors were added to a piece of filter paper (100 μL of odorant) in a 35 mm petri dish and a cotton ball (200 μL of odorant) and placed in each cage. […]
The remaining 169 activation genes that were also considered as HVGs often had weak loadings across multiple GEPs. […] To summarize the effects of odor activation across this set of activation genes, the TPT-expression of these activation genes were z-scored (using means and standard deviations for these genes in the control, acetophenone, and octanal datasets, identified by subsampling equal numbers of cells across all ORs expressed in at least 6 cells across 100 restarts). […] PCA was performed on the differences in z-scored activation gene expression between control and odor conditions. […]

[1] = system: acetophenone-responsive OSN subtypes; assay: Transient naris occlusion followed by Act-Seq; format: in vivo, mouse; conditions: 10% acetophenone, 2 hours after unplugging
Protocol: Because odor responses in occluded OSNs cannot be examined in the chronic occlusion experiment due to permanent cautery, transient unilateral naris occlusion was performed using removable nasal plugs. Adult mice (6-12 weeks old) were anesthetized by isoflurane and removal nasal plugs were inserted into one of the two nostrils, as previously described (Galliano et al., 2021; Kass et al., 2012). The occlusion was confirmed by measuring airflow from the occluded nostril via thermocouple. After 5 days, a subset of mice was used for scSeq experiment directly (control mice) to assess the effects of naris occlusion on changes in gene expression. Under brief anesthesia by isoflurane, the remaining mice were unplugged and transferred to a new empty disposable cage containing either DPG alone or 10% acetophenone. After 2 hours, mice were subjected to scSeq. Each of the two nostrils was used separately in both control (open and plugged) and odor-exposed mice (open and unplugged).

CC(=O)c1ccccc1 [acetophenone]
activation scores for OSNs expressing Olfr923 (Olfr923): higher for acetophenone than 2-HA | activation scores of acetophenone receptor-expressing OSNs from occluded (unplugged) vs open nostrils [1]: higher activation scores

— US20250043349A1, “DEORPHANIZING ODORS USING SINGLE CELL SEQUENCING” (PRESIDENT AND FELLOWS OF HARVARD COLLEGE, priority 2021, published 2025)
